≈ marks a conversion by molar mass, not a printed value. Where a SMILES comes first, the peptide text is derived from it.
Key:
Pseudomonas aeruginosa [1] = experiment: Antibacterial activity against Pseudomonas aeruginosa ATCC 27853 incubated for 18 hrs by CLSI based broth dilution method; assay type: functional
[2] = Selectivity ratio of MHC10 for BALB/C mouse erythrocytes to MIC for fungi; assay type: toxicity
Pseudomonas aeruginosa [3] = experiment: Synergistic antibacterial activity against Pseudomonas aeruginosa ATCC 27853 at 2 times MIC incubated for 18 to 24 hrs in presence of 2 times MIC of polymyxin B by broth microdilution assay based checkerboard assay; assay type: functional; conditions: time 18-24 hrs
Erythrocyte = experiment: Hemolytic activity in BALB/C mouse erythrocytes incubated for 1 hr by absorbance method; assay type: ADME, cell-based
[4] = Selectivity ratio of MHC10 for BALB/C mouse erythrocytes to MIC for bacteria; assay type: toxicity
Enterococcus faecalis = experiment: Antibacterial activity against Enterococcus faecalis ATCC 29212 incubated for 18 hrs by CLSI based broth dilution method; assay type: functional
Escherichia coli = experiment: Antibacterial activity against Escherichia coli ATCC 25922 incubated for 18 hrs by CLSI based broth dilution method; assay type: functional
Bacillus subtilis = experiment: Antibacterial activity against Bacillus subtilis ATCC 23857 incubated for 18 hrs by CLSI based broth dilution method; assay type: functional
Acinetobacter baumannii = experiment: Antibacterial activity against Acinetobacter baumannii ATCC 19606 incubated for 18 hrs by CLSI based broth dilution method; assay type: functional; conditions: ATCC 19606 = CIP 70.34 = JCM 6841
[5] = Cytotoxicity against human glomerular mesangial cells incubated for 12 hrs by MTT assay; assay type: cell-based; conditions: Glomerular mesangial cell
Pseudomonas aeruginosa [6] = experiment: Synergistic antibacterial activity against Pseudomonas aeruginosa ATCC 27853 at 2 times MIC incubated for 18 to 24 hrs in presence of 2 times MIC of rifampicin by broth microdilution assay based checkerboard assay; assay type: functional; conditions: time 18-24 hrs
Klebsiella pneumoniae = experiment: Antibacterial activity against Klebsiella pneumoniae ATCC 700603 incubated for 18 hrs by CLSI based broth dilution method; assay type: functional
Fungi = experiment: Antibacterial activity against fungi incubated for 18 hrs by CLSI based broth dilution method; assay type: functional
Staphylococcus aureus = experiment: Antibacterial activity against Staphylococcus aureus ATCC 25923 incubated for 18 hrs by CLSI based broth dilution method; assay type: functional
[7] = Selectivity ratio of MHC10 for BALB/C mouse erythrocytes to MIC for gram-negative bacteria; assay type: toxicity
[8] = Selectivity ratio of MHC10 for BALB/C mouse erythrocytes to MIC for gram positive bacteria; assay type: toxicity
Bacteria [9] = experiment: Antibacterial activity against Gram-positive bacteria incubated for 18 hrs by CLSI based broth dilution method; assay type: functional
[10] = test system: Staphylococcus epidermidis; experiment: Antibacterial activity against Staphylococcus epidermidis ATCC 12228 incubated for 18 hrs by CLSI based broth dilution method; assay type: functional
Bacteria [11] = experiment: Antibacterial activity against bacteria incubated for 18 hrs by CLSI based broth dilution method; assay type: functional
Bacteria [12] = experiment: Antibacterial activity against Gram-negative bacteria incubated for 18 hrs by CLSI based broth dilution method; assay type: functional

| Compound | MIC (Pseudomonas aeruginosa [1]) | selectivity ratio [2] | FIC (Pseudomonas aeruginosa [3]) | MHC10 (Erythrocyte) | selectivity ratio [4] | MIC (Enterococcus faecalis) | MIC (Escherichia coli) | MIC (Bacillus subtilis) | MIC (Acinetobacter baumannii) | IC50 [5] | FIC (Pseudomonas aeruginosa [6]) | MIC (Klebsiella pneumoniae) | MIC (Fungi) | MIC (Staphylococcus aureus) | selectivity ratio [7] | selectivity ratio at 18 h [8] | MIC (Bacteria [9]) | MIC [10] | MIC (Bacteria [11]) | MIC (Bacteria [12]) |
| --- | --- | --- | --- | --- | --- | --- | --- | --- | --- | --- | --- | --- | --- | --- | --- | --- | --- | --- | --- | --- |
| CC[C@H](C)[C@H](NC(=O)[C@H](CCCNC(=N)N)NC(=O)[C@H](CCCCN)NC(=O)[C@H](Cc1ccccc1)NC(=O)[C@H](Cc1ccccc1)NC(=O)CN)C(=O)N[C@@H](CCCNC(=N)N)C(=O)N[C@H](C(=O)N[C@@H](Cc1ccccc1)C(=O)N[C@@H](Cc1ccccc1)C(N)=O)[C@@H](C)O (H-GFFKRIRTFF-NH2) | 32 µM (≈ 42.2 µg/mL) | 19 | 0.5625 | >= 512 uM | 19 | 64 µM (≈ 84.3 µg/mL) | 32 µM (≈ 42.2 µg/mL) | 16 µM (≈ 21.1 µg/mL) | 64 µM (≈ 84.3 µg/mL) | 88.9 µM | 0.5625 | 32 µM (≈ 42.2 µg/mL) | 26.9 µM (≈ 35.5 µg/mL) | 16 µM (≈ 21.1 µg/mL) | 22.6 | 16 | 32 µM (≈ 42.2 µg/mL) | 64 µM (≈ 84.3 µg/mL) | 26.9 µM (≈ 35.5 µg/mL) | – |
| CC[C@H](C)[C@H](NC(=O)[C@H](CCCNC(=N)N)NC(=O)[C@H](CCCNC(=N)N)NC(=O)[C@H](Cc1ccccc1)NC(=O)[C@H](Cc1ccccc1)NC(=O)CN)C(=O)N[C@@H](CCCCN)C(=O)N[C@H](C(=O)N[C@@H](Cc1ccccc1)C(=O)N[C@@H](Cc1ccccc1)C(N)=O)[C@@H](C)O (H-GFFRRIKTFF-NH2) | 32 µM (≈ 42.2 µg/mL) | 17.4 | 0.5 | >= 512 uM | 17.4 | 64 µM (≈ 84.3 µg/mL) | 32 µM (≈ 42.2 µg/mL) | 16 µM (≈ 21.1 µg/mL) | 64 µM (≈ 84.3 µg/mL) | 91.9 µM | 0.3125 | 32 µM (≈ 42.2 µg/mL) | 29.3 µM (≈ 38.7 µg/mL) | 16 µM (≈ 21.1 µg/mL) | 19 | 16 | 32 µM (≈ 42.2 µg/mL) | 64 µM (≈ 84.3 µg/mL) | 29.3 µM (≈ 38.7 µg/mL) | – |
| C[C@@H](O)[C@H](NC(=O)[C@H](CCCCN)NC(=O)[C@H](Cc1c[nH]c2ccccc12)NC(=O)[C@H](CCCNC(=N)N)NC(=O)[C@H](CCCCN)NC(=O)[C@H](Cc1c[nH]c2ccccc12)NC(=O)[C@H](Cc1c[nH]c2ccccc12)NC(=O)CN)C(=O)N[C@@H](Cc1c[nH]c2ccccc12)C(=O)N[C@@H](Cc1c[nH]c2ccccc12)C(N)=O (H-GWWKRWKTWW-NH2) | 16 µM (≈ 24.3 µg/mL) | 4.29 | – | 40.79 µM | 4.29 | 16 µM (≈ 24.3 µg/mL) | 16 µM (≈ 24.3 µg/mL) | 4 µM (≈ 6.08 µg/mL) | 16 µM (≈ 24.3 µg/mL) | 49.5 µM | – | 16 µM (≈ 24.3 µg/mL) | 9.51 µM (≈ 14.4 µg/mL) | 8 µM (≈ 12.2 µg/mL) | 3.02 | 6.09 | 6.7 µM (≈ 10.2 µg/mL) | 4 µM (≈ 6.08 µg/mL) | 9.51 µM (≈ 14.4 µg/mL) | 13.5 µM (≈ 20.5 µg/mL) |
| N=C(N)NCCC[C@H](NC(=O)[C@H](CCCNC(=N)N)NC(=O)[C@H](Cc1c[nH]c2ccccc12)NC(=O)[C@H](CCCNC(=N)N)NC(=O)[C@H](CCCNC(=N)N)NC(=O)[C@H](Cc1c[nH]c2ccccc12)NC(=O)[C@H](Cc1c[nH]c2ccccc12)NC(=O)[C@@H](N)CCCNC(=N)N)C(=O)N[C@@H](Cc1c[nH]c2ccccc12)C(=O)N[C@@H](Cc1c[nH]c2ccccc12)C(N)=O (H-RWWRRWRRWW-NH2) | 32 µM (≈ 55.3 µg/mL) | 2.5 | – | 43.67 µM | 2.5 | 32 µM (≈ 55.3 µg/mL) | 32 µM (≈ 55.3 µg/mL) | 4 µM (≈ 6.92 µg/mL) | 128 µM (≈ 221 µg/mL) | 11.2 µM | – | 32 µM (≈ 55.3 µg/mL) | 17.4 µM (≈ 30.2 µg/mL) | 8 µM (≈ 13.8 µg/mL) | 1.93 | 3.23 | 13.5 µM (≈ 23.3 µg/mL) | 32 µM (≈ 55.3 µg/mL) | 17.4 µM (≈ 30.2 µg/mL) | 22.6 µM (≈ 39.1 µg/mL) |
